# Data taken from US20230265425A1, “lncRNA-REGULATED GENE EXPRESSION SYSTEM” (MEMORIAL SLOAN KETTERING CANCER CENTER, priority 2020, published 2023).
# Where two headings read alike, the source gives them in different places.
# Columns and labels:
# Pho1 acid phosphatase = test: Acid phosphatase activity assay of plasmid-bearing pho4Δ pho1Δ cells; details: for Pho1 activity, % of the level attained with 15 μM thiamine: pTIN-pho1 cells
# Description: Acid phosphatase activity assay. Aliquots of exponentially growing cultures were harvested, washed with water, and re-suspended in water. To quantify acid phosphatase activity, reaction mixtures (200 μl) containing 100 mM sodium acetate (pH 4.2), 10 mM p-nitrophenyl phosphate (NEB), and cells (ranging from 0.01 to 0.1 A600 units) were incubated for 5 min at 30° C. The reactions were quenched by addition of 1 ml of 1 M sodium carbonate; the cells were removed by centrifugation and the absorbance of the supernatant was measured at 410 nm. Acid phosphatase activity is expressed as the ratio of A410 (p-nitrophenol production) to A600 (cells). The data are averages (±SEM) of at least three assays using cells from three independent cultures.
# To assay the activity of this promoter system, pho1 was used as the reporter gene driven by the tgp1 promoter (FIG. 1A). Cell surface-associated Pho1 activity is readily assayable colorimetrically via the conversion ofp-nitrophenylphosphate to p-nitrophenol. The pho1 gene was cloned downstream of the tgp1 5′ UTR in the pTIN vector with its native 3′ flanking DNA to yield the pTIN-pho1 plasmid (FIG. 1A). To test background acid phosphatase levels, a promoter-less pTIN pho1 vector was constructed that lacked the DNA segment spanning the regulatory nmt1-promoternc·tgp1·tgp1 promoter region as well as the tgp1 5′ UTR and only contained the pho1 ORF. These plasmids were introduced into a strain in which the chromosomal pho1 and pho4 genes encoding the cell-surface acid phosphatases Pho1 and Pho4 were deleted. Plasmid-bearing pho1Δ pho4Δ cells were grown to mid-log phase in Leu^− PMG medium without thiamine and subsequently diluted and grown in Leu^− PMG medium with or without 15 μM thiamine. Pho1 acid phosphatase activity was measured by incubating dilutions of cells with p-nitrophenylphosphate and measuring its conversion to p-nitrophenol for 5 min at 30° C. The amount of product formed (within the linear range of detection) was normalized to cell density and is plotted on the y-axis in FIG. 1B.
# pho1 mRNA = test: microbe, parasite or virus in culture; details: for fold induction at 15 µM: Schizosaccharomyces pombe
# Description: Total RNA prepared from harvested samples was analyzed by reverse transcription primer extension using a mixture of radiolabeled primers complementary to the pho1 (top panel) or the act1 (bottom panel) mRNAs. The reaction products were resolved by denaturing urea-PAGE and visualized by autoradiography. The images shown in the top and bottom panels are from a single exposure of one gel. For conciseness of the figure, the intervening lanes of the gel were cropped (represented by the thin line separating the 3 and 10-hour samples). The positions and sizes (in nucleotides) of DNA markers are indicated on the left. Fold-induction reflects the ratio of the act1-normalizedpho1 signal at the indicated time to time-0.
# RNA analysis. Total RNA was extracted via the hot phenol method (Köhrer K. and Domdey H., Method Enzymol: 398-405 (1991), which is hereby incorporated by reference) from 3 A600 units of harvested yeast cells. For analysis of specific transcripts by primer extension, aliquots (5 μg) of total RNA were templated for M-MuLV reverse transcriptase-catalyzed extensions of 5′ 32P-labeled oligodeoxynucleotide primers complementary to the phot and actl mRNAs in one reaction mix. The primer sequence for act1 was, 5′-[…] (SEQ ID NO: 12), and for pho1, 5′-[…] (SEQ ID NO: 13). The primer extension reactions were performed as described by Schwer B., et al., Nucleic Acids Res 26: 2050-2057 (1998), which is hereby incorporated by reference, and the products were analyzed by electrophoresis of the reaction mixtures through a 22-cm 8% polyacrylamide gel containing 7 M urea in 80 mM Tris-borate, 1.2 mM EDTA. The ^32P-labeled primer extension products were visualized by autoradiography of the dried gel. Quantification of pho1 and act1 mRNA levels was done by scanning the dried gel with a phosphorimager and analyzing the data in ImageQuant software.
# Pho1 acid phosphatase activity in pho1Δ pho4Δ A cells bearing the pTIN pho1 plasmid was determined as a function of time after addition of thiamine (FIG. 2A). […] To gauge the level of phol mRNA, primer extension analysis using a pho1-specific radiolabeled primer for reverse-transcription was used, in parallel with an actin gene-specific primer as a control.
structure (smiles),measurement,setting,value
Cc1ncc(C[n+]2csc(CCO)c2C)c(N)n1 [thiamine],EC50,"Pho1 acid phosphatase; Schizosaccharomyces pombe, read-out: dose of half maximal response (EC50) of Pho1 activity",0.069 ± 0.005 µM
same,fold induction at 15 µM,"Pho1 acid phosphatase; Schizosaccharomyces pombe, read-out: fold induction of Pho1 activity",59
same,"rate of Pho1 activity increase between 7 and 11 hours, % of the initial rate (1 to 7 hours)",Pho1 acid phosphatase; pTIN pho1 cells after addition of 15 μM thiamine,58%
same,fold increase in acid phosphatase activity,"Pho1 acid phosphatase; pTIN pho1 cells, 15 μM thiamine vs thiamine-free medium, 21 hours",58 fold
same,fold increase in Pho1 level over the uninduced state,"Pho1 acid phosphatase; pTIN pho1 cells, 23 hours after addition of 15 μM thiamine",53 fold
same,"Pho1 activity, % of the level attained with 15 μM thiamine",Pho1 acid phosphatase; 0.01 μM thiamine,8%
same,"Pho1 activity, % of the level attained with 15 μM thiamine",Pho1 acid phosphatase; 0.025 μM thiamine,16%
same,"Pho1 activity, % of the level attained with 15 μM thiamine",Pho1 acid phosphatase; 0.05 μM thiamine,33%
same,"Pho1 activity, % of the level attained with 15 μM thiamine",Pho1 acid phosphatase; 0.075 μM thiamine,54%
same,"Pho1 activity, % of the level attained with 15 μM thiamine",Pho1 acid phosphatase; 0.1 μM thiamine,73%
same,"Pho1 activity, % of the level attained with 15 μM thiamine",Pho1 acid phosphatase; 0.3 μM thiamine,93%
same,"Pho1 activity, % of the level attained with 15 μM thiamine",Pho1 acid phosphatase; 3 μM thiamine,96%
same,fold increase in Pho1 activity on addition of thiamine,"Pho1 acid phosphatase; pho1Δ pho4Δ cells bearing pTIN7m pho1, 22 hours",172 fold
same,thiamine concentration at which induction was saturated,Pho1 acid phosphatase; pho1Δ pho4Δ cells bearing pTIN-pho1,≥ 0.3 µM
same,fold induction at 15 µM,"pho1 mRNA; 0.5 h, read-out: pho1 mRNA fold induction (act1-normalized, vs time-0)",25
same,fold induction at 15 µM,"pho1 mRNA; 1 h, read-out: pho1 mRNA maximum fold induction",61
same,transcriptional induction by the addition of thiamine (dynamic range of pTIN system),pho1 mRNA; pTIN system,≤ 60 fold
same,time after induction at which target mRNA levels reach peak,"pho1 mRNA; pTIN system, thiamine induction",≤ 1 h
same,"pho1 mRNA level, fold higher than the uninduced state","pho1 mRNA; pTIN-pho1 cells, all times assayed after 1 hour",approximately 60 fold
